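Cells were grown in 96-well plates and exposed to each compound for 48 hours at five concentrations; endpoints were interpolated linearly between bracketing concentrations, or set to the highest concentration if not reached. TGI is the concentration that stops growth completely.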
Tests used:
Experiment in all cases: growth of human tumour cells (NCI), 48 h
[1] = tested on: HOP-92 NSCLC
[2] = tested on: IGROV1 ovarian
[3] = tested on: MALME-3M melanoma
[4] = tested on: NCI-H522 lung
[5] = tested on: NCI/ADR-RES ovarian
[6] = tested on: OVCAR-5 ovarian
[7] = tested on: SK-MEL-2 melanoma
[8] = tested on: SK-MEL-28 melanoma
[9] = tested on: SK-MEL-5 melanoma
[10] = tested on: SN12C renal
[11] = tested on: T-47D breast
[12] = tested on: UO-31 renal
[13] = tested on: SR leukemia
[14] = tested on: UACC-257 melanoma

SMILES	TGI [1] [µM]	TGI [2] [µM]	TGI [3] [µM]	TGI [4] [µM]	TGI [5] [µM]	TGI [6] [µM]	TGI [7] [µM]	TGI [8] [µM]	TGI [9] [µM]	TGI [10] [µM]	TGI [11] [µM]	TGI [12] [µM]	TGI [13] [µM]	TGI [14] [µM]
CN(C)c1ccc(/C=C/C(=O)c2cc(C(C)(C)C)c(O)c(C(C)(C)C)c2)cc1	> 100	> 100	> 100	6	6.64	> 30.2	> 100	> 100	16.5	> 38.7	> 100	> 100		
C[N+]1=C(c2cccnc2/C=N/O)OCC1(C)C	> 100	> 100	> 100	> 100		> 100	> 100	> 100	> 100	> 100		> 100	> 100	> 100
O=C(Nc1cccc(C(F)(F)F)c1)C(=O)C(C(=O)c1ccc(Cl)c(Cl)c1)C1OC(=O)c2ccccc21 (stereo not drawn)	> 100	> 100	76.9	> 100		> 100				> 100		> 100	> 100	> 100
CCCCn1c(-c2ccccc2)cs/c1=N\N=C1C=C(C(C)(C)C)C(=O)C(C(C)(C)C)=C1		> 100	> 100			> 100	> 100			> 100		> 100	> 100	> 100
O=C1c2ccccc2N=C(c2cc3c(cc2Cl)Sc2nccn2S3(=O)=O)OS(=O)(=O)N1c1ccccc1	> 100		> 100	25.5		78.8				> 100	> 100	91.3	26.2	> 100
CC[C@H](C)[C@H](NC(=O)N(CCC#N)CCN(CCN(C(=O)N[C@@H](Cc1ccccc1)C(=O)OC)c1ccccc1)C(=O)N[C@H](C(=O)OC)C(C)C)C(=O)OC	23.3	45.9	35		81.7	57.3	43.4	29.7	38.4	54.5	47.2	33.8		29
CCOC(=O)/C=C/n1c2ccccc2c(=O)c2cc(OC)ccc21	> 100	> 100	> 100	> 100		> 100	> 100	> 100	> 100	> 100		> 100	> 100	> 100
O=C1NC(=O)C(C(=O)C(=O)Nc2cc(Cl)ccc2Cl)C(=O)N1	> 100	> 100	> 100	> 100		> 100	> 100	> 100	> 100			> 100		> 100
Cc1ccc2nc(N)[nH]c(=O)c2c1Sc1ccncc1	> 100	> 100	> 100	> 100		> 100	> 100	> 100	> 100	> 100		> 100	> 100	> 100
N#C/C(=C\c1ccc(O)c(O)c1)c1c(C#N)c(N)nn1-c1ccccc1	> 100	14.5	26.8	13.2		> 100	49.8	> 100	34.4	39.4		62		> 100
c1ccc2c(c1)nnn2CNc1ccc(N2CCCCC2)cc1	> 100	> 100	> 100	> 100			> 100	> 100		> 100		> 100	> 100	> 100
C/C=C1\CC(C(=O)OCC)CCCCCCC1=O (stereo not drawn)		> 100	> 100	> 100	> 100	> 100	> 100	> 100	> 100	> 100	> 100	> 100		> 100
COc1ccc(CN(CCN(C)C)c2ccccn2)cc1 (tested in a mixture with another compound)	> 100	> 100	> 100	> 100		> 100	> 100	> 100	> 100	> 100		> 100		> 100
Nc1cn(C2OC(CC(c3ccccc3)(c3ccccc3)c3ccccc3)C(O)C2O)c(=O)[nH]c1=O (stereo not drawn)	39	70.7	55.7	38.3		> 100	> 100	81.7	37.4	49.4		> 100	39.9	52.3
NC(CCSCC(F)(F)F)C(=O)O (stereo not drawn)	> 100	> 100	> 100	> 100		> 100		> 100	> 100	> 100		> 100	> 100	> 100
Oc1ccc(-c2c3ccccc3c(-c3ccc(O)cc3)c3ccccc23)cc1	> 100	> 100	> 100	> 100		> 100	> 100	> 100	> 100	> 100		> 100	> 100	> 100
CC(=N/NC(=S)N1CCCCCC1)/C(C)=N\NC(=S)N1CCCCCC1	2.77	8.44	11.1	8.97	16.8	> 23.5		3.56	10.8	3.99	3.54	54.3		13.7
CC(=O)c1ccc(N2C(=O)C3c4[nH]c5ccccc5c4C4CCC(C(C)(C)C)CC4C3C2=O)cc1 (stereo not drawn)	47.1	> 100	34.4	61.9				83.2	58.8	32.8		> 100	70.9	> 100
C/C(=C1/N=C(c2cc([N+](=O)[O-])ccc2Cl)N(c2ccc(Br)cc2)C1=O)c1ccc(N(CCC#N)CCC#N)cc1C	> 100	> 100	> 100			> 100	> 100	> 100	> 100	> 100		> 100	42.1	> 100

Reference: PubChem BioAssay (NCI)
